ChEMBL document CHEMBL4665659, “Utilizing comprehensive and mini-kinome panels to optimize the selectivity of quinoline inhibitors for cyclin G associated kinase (GAK)” (Bioorg Med Chem Lett, 2019)
Activity calls are given as the source filed them. The rule behind the calls is not given here.

Assays:
[1] = target: Epidermal growth factor receptor (Homo sapiens) (UniProt P00533); assay: Inhibition of human wild type partial length EGFR (R669 to V1011 residues) expressed in bacterial expression system at 1 uM by Kinomescan method
[2] = target: T1, Ephrin type-A receptor 1 (Homo sapiens) (UniProt P21709); assay: Inhibition of human wild type partial length EphA1 (V588 to I913 residues) expressed in bacterial expression system at 1 uM by Kinomescan method
T1 sequence (whole entry): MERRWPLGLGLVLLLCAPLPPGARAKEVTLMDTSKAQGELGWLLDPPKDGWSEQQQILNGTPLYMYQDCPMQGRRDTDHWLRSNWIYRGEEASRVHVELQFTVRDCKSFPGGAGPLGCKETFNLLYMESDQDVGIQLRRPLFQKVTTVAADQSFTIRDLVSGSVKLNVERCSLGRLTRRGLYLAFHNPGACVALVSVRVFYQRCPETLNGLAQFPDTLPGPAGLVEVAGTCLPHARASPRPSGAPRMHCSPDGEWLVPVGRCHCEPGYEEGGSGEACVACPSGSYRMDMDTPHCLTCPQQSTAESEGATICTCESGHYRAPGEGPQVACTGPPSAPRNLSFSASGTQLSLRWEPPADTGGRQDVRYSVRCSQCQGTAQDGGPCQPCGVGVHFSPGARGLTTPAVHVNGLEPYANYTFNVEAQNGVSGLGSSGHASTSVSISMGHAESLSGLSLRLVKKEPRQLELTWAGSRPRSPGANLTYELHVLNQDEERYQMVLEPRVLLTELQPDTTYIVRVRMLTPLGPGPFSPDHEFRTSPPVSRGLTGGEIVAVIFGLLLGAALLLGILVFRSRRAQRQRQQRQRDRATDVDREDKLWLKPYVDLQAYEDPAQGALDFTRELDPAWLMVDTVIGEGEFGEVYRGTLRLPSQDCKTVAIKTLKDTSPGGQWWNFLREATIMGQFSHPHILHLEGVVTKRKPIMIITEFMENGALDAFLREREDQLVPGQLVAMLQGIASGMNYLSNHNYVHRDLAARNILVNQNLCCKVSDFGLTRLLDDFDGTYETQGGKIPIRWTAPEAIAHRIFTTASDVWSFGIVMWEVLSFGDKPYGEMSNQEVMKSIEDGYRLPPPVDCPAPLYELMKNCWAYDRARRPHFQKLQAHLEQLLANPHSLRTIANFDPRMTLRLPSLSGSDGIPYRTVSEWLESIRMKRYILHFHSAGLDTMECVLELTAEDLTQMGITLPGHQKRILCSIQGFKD

[3] = target: RAF proto-oncogene serine/threonine-protein kinase (Homo sapiens) (UniProt P04049); assay: Inhibition of human wild type partial length C-Raf (I330 to T640 residues) expressed in bacterial expression system at 1 uM by Kinomescan method relative to control
[4] = target: T2, Activin receptor type-1 (Homo sapiens) (UniProt Q04771); assay: Inhibition of human wild type partial length ALK2 (C188 to C509 residues) expressed in bacterial expression system at 1 uM by Kinomescan method relative to control
T2 sequence (whole entry): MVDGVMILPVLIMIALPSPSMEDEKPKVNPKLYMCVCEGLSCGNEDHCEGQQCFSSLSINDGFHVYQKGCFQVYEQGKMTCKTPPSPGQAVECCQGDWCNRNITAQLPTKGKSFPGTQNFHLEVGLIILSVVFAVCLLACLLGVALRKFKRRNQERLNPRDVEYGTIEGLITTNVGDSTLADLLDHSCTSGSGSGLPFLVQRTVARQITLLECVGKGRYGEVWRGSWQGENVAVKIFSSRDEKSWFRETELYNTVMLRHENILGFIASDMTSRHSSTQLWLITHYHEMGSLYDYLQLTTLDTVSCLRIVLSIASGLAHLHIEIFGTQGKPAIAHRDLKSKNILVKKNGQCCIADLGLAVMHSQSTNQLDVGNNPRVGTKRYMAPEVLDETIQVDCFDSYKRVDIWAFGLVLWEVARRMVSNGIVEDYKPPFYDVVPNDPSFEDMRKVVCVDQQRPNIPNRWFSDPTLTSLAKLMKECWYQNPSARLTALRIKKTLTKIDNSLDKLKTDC

RAF proto-oncogene serine/threonine-protein kinase (Homo sapiens), sequence (P04049 whole entry, the tested form may be a part): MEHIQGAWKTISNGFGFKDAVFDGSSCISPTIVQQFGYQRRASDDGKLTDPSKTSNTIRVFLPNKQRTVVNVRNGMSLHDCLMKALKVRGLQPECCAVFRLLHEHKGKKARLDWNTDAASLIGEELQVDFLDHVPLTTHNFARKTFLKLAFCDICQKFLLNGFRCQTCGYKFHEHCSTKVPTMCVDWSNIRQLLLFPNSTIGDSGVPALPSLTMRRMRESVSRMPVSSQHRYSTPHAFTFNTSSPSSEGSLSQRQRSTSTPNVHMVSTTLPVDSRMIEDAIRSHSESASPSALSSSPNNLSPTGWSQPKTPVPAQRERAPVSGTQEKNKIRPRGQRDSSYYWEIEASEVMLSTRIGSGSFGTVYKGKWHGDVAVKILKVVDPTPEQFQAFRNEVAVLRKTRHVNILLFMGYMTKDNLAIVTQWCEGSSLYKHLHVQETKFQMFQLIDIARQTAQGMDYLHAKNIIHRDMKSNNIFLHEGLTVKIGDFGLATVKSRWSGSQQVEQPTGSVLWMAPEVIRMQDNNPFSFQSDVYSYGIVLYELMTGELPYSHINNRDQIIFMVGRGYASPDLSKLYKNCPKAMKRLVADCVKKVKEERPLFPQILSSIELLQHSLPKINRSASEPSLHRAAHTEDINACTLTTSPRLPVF
Epidermal growth factor receptor (Homo sapiens), sequence (P00533 whole entry, the tested form may be a part): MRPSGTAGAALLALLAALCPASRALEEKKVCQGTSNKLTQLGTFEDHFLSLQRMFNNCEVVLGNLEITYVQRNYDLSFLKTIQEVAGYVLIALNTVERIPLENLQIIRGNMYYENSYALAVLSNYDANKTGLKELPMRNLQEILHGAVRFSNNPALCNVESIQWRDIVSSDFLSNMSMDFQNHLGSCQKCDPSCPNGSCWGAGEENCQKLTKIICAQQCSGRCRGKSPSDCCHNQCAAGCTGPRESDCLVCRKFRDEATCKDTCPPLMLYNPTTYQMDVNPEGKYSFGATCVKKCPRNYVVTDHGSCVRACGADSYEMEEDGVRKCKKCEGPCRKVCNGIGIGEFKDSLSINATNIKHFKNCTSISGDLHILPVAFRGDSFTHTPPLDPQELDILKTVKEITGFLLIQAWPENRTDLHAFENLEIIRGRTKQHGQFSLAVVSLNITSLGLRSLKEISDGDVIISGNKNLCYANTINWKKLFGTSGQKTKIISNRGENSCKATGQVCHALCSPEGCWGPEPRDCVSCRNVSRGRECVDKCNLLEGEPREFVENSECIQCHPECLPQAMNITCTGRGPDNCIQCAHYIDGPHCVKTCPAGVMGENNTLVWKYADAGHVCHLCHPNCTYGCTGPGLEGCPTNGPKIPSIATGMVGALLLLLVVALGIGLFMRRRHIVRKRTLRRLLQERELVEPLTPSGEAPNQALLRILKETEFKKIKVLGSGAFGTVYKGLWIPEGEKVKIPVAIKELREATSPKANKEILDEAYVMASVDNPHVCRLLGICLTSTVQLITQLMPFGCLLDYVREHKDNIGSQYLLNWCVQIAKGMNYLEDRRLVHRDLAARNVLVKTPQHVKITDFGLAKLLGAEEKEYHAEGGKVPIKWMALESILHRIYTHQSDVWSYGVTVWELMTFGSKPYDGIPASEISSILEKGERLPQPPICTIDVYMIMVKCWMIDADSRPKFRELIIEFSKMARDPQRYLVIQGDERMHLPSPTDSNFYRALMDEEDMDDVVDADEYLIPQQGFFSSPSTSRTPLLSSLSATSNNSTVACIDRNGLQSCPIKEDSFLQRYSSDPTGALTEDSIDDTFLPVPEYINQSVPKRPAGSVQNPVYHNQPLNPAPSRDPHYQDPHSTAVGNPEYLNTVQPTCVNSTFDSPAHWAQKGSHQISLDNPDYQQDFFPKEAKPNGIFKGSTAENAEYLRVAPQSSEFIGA

| Structure (SMILES) | inhibition [1] | inhibition [2] | inhibition [3] | inhibition [4] |
| --- | --- | --- | --- | --- |
| COc1cc(Nc2ccnc3cc(Cl)ccc23)cc(OC)c1OC | inactive | Active | 70% | 80% |
| COc1cc(Nc2ccnc3cc(C(F)(F)F)ccc23)cc(OC)c1OC | inactive | Active | 70% | 80% |

The remaining lines, values ahead:

| inhibition [1] | inhibition [2] | inhibition [3] | inhibition [4] | Structure (SMILES) |
| --- | --- | --- | --- | --- |
| inactive | Active | 70% | 80% | COc1cc(Nc2ccnc3cc(I)ccc23)cc(OC)c1OC |
| inactive | Active | 70% | 80% | COc1cc(Nc2ccnc3cc(C#N)ccc23)cc(OC)c1OC |
| inactive | Active | 70% | 80% | COc1cc(Nc2ccnc3cc(Br)ccc23)cc(OC)c1OC |
